Laboratory results published in patent US20250129095A1, “ANNULATED 2-AMINO-3-CYANO THIOPHENES AND DERIVATIVES FOR THE TREATMENT OF CANCER” (Boehringer Ingelheim Int'l GmbH Corp., priority 2021, published 2025).
pIC50: −log10 of the molar value. Values after ≈ are worked out from the molar mass of the structure shown. Read-outs that look alike come from different tables or passages of the source.

Assays:
[1] = Plasma protein binding assay (PPB), equilibrium dialysis; assay type: in vitro ADME; details: bovine, 10% FCS in PBS, read-out: PPB 10% FCS (% fu)
Procedure: Binding of test compounds to plasma was determined using equilibrium dialysis (ED) and quantitative mass spectrometry interfaced with liquid chromatography (LC-MS). In brief, ED was performed with dialysis devices consisting of two chambers separated by a semipermeable membrane with a molecular weight cut-off of 5-10 kg/mol. One chamber was filled with 10% FCS in PBS containing 1-10 μmol/L test compound and the other chamber was filled with phosphate-buffer saline (PBS) with or without dextran. The dialysis chamber was incubated for 3-5 hours at 37° C. After incubation, protein was precipitated from aliquots of each chamber and the concentration of test compound in the supernatant of the plasma-containing compartment (cserum) and of the buffer-containing compartment (cbuffer) was determined by LC-MS. The fraction of unbound test compound (not bound to plasma) (fu) was calculated according to the following equation: […]

KRAS G12V Ba/F3 = KRAS G12V Ba/F3 (Homo sapiens, UniProt P01116, G12V, cells depend on it); test: Ba/F3 proliferation assay, KRAS G12V; assay type: cell-based; details: 72 h, AlamarBlue, read-out: KRAS G12V Ba/F3 IC50
Chain of KRAS G12V Ba/F3 (P01116 whole entry G12V, canonical isoform): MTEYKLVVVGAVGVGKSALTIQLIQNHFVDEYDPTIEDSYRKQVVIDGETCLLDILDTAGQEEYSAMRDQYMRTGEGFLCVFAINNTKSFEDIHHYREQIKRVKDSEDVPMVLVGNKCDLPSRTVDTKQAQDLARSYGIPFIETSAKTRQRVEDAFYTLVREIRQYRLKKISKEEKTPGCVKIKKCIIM
Procedure: (§1) Plasmids containing KRASG12 mutants(i.e. G12D, G12C, G12V) are obtained from GeneScript. To generate KRASG12-dependent Ba/F3 models, Ba/F3 cells are transduced with retroviruses containing vectors that harbor KRASG12 isoforms. Platinum-E cells (Cell Biolabs) are used for retrovirus packaging. Retrovirus is added to Ba/F3 cells. To ensure infection, 4 μg/mL polybrene is added and cells are spinfected. […] Cells with an infection efficiency of 10% to 20% are further cultivated and puromycin selection with 1 μg/mL is initiated. As a control, parental Ba/F3 cells are used to show selection status. Selection is considered successful when parental Ba/F3 cells cultures died. To evaluate the transforming potential of KRASG12 mutations, the growth medium is no longer supplemented with IL-3. Ba/F3 cells harboring the empty vector are used as a control. Approximately ten days before conducting the experiments, puromycin is left out.
(§2) Compounds are added using an Access Labcyte Workstation with a Labcyte Echo 550 or 555 accoustic dispenser. All treatments are performed in technical duplicates. […] AlamarBlue™ (ThermoFisher), a viability stain, is added and fluorescence measured in the PerkinElmer Envision HTS Multilabel Reader. The raw data are imported into and analyzed with the Boehringer Ingelheim proprietary software MegaLab (curve fitting based on the program PRISM, GraphPad Inc.).

[2] = Solubility measurement (DMSO solution precipitation method); assay type: physicochemical; details: aqueous buffer, kinetic from dmso stock
Procedure: The DMSO solution is diluted with an aqueous medium (McIlvaine buffer with pH=4.5 or 6.8) to a final concentration of 250 μM. After 24 h of shaking at ambient temperature a potentially formed precipitate is removed by filtration. The concentration of the test compound in the filtrate is determined by LC-UV methods by calibrating the signal to the signal of a reference solution with complete dissolution of the test compound in acetonitrile/water (1:1) with known concentration.

[3] = Metabolic (microsomal) stability assay, human liver microsomes (HLM); assay type: in vitro ADME; details: 1 μM, predicted clearance as percent of liver blood flow
Procedure: The metabolic degradation of the test compound is assayed at 37° C. with pooled liver microsomes (mouse (MLM), rat (RLM) or human (HLM)). The final incubation volume of 48 μL per time point contains TRIS buffer (pH 7.5; 0.1 M), magnesium chloride (6.5 mM), microsomal protein (0.5 mg/mL for mouse/rat, 1 mg/mL for human specimens) and the test compound at a final concentration of 1 μM. Following a short preincubation period at 37° C., the reactions are initiated by addition of 12 μL beta-nicotinamide adenine dinucleotide phosphate, reduced form (NADPH, 10 mM) and terminated by transferring an aliquot into solvent after different time points (0, 5, 15, 30, 60 min). Additionally, the NADPH-independent degradation is monitored in incubations without NADPH, terminated at the last time point by addition of acetonitrile. The quenched incubations are pelleted by centrifugation (4,000 rpm, 15 min). An aliquot of the supernatant is assayed by LC-MS/MS to quantify the concentration of parent compound in the individual samples.
In vitro intrinsic clearance (CLint, in vitro) is calculated from the time course of the disappearance of the test drug during the microsomal incubation. Each plot is fitted to the first-order elimination rate constant as C(t)=C0*exp(−ke*t), where C(t) and C0 are the concentration of unchanged test drug at incubation time t and that at preincubation and ke is the disappearance rate constant of the unchanged drug. Subsequently, CLint, in vitro (μL min^−1·amount protein) values are converted to predicted CLint, in vitro (mL min^−1·kg^−1) from incubation parameters according to the equation CLint, in vitro=CLint, in vitro×(incubation volume (ml)/amount protein (mg))×(amount protein (mg)/g liver tissue)×(liver weight/body wt.). For better across species comparison the predicted clearance is expressed as percent of the liver blood flow [% QH](mL min^−1·kg^−1) in the individual species. In general, high stability (corresponding to low % QH) of the compounds across species is desired.

AsPC-1 cells = test: AsPC-1 CTG proliferation assay (120 h) (pancreatic cancer, G12D); assay type: cell-based; details: Homo sapiens, ASPC1
Procedure: The CTG assay is designed to measure quantitatively the proliferation of AsPC-1 cells (ATCC CRL-5985), using the CellTiter Glow Assay Kit (Promega G7571). Cells are grown in RPMI medium (ATCC) supplemented with Fetal Calf Serum (Life Technologies, Gibco BRL, Cat. No. 10270-106). On “day 0” 2000 AsPC-1 cells are seeded in 60 μL RPMI ATCC+10% FCS+ Penstrep in a 384-well plate, flat and clear bottom (Greiner, PNr. 781091). Cells are then incubated in the plates at 37° C. in a CO2 incubator overnight. On day 1, compounds (10 mM stock in DMSO) are added with the ECHO acoustic liquid handler system (Beckman Coulter), including DMSO controls. Plates are incubated for 120 h, and cell viability is measured using CellTiter-Glo luminescent cell viability reagent (Promega product code G7570). Viability (stated as percent of control) is defined as relative luminescence units RLU of each well divided by the RLU of cells in DMSO controls.

KRAS G12C Ba/F3 = KRAS G12C Ba/F3 (Homo sapiens, UniProt P01116, G12C, cells depend on it); test: Ba/F3 proliferation assay, KRAS G12C; assay type: cell-based; details: 72 h, AlamarBlue, read-out: KRAS G12C Ba/F3 IC50
Chain of KRAS G12C Ba/F3 (P01116 whole entry G12C): as the sequence (P01116 whole entry G12V, canonical isoform) above, with V12C counted along it
Procedure: as §1, §2

KRAS G12D Ba/F3 = KRAS G12D Ba/F3 (Homo sapiens, UniProt P01116, G12D, cells depend on it); test: Ba/F3 proliferation assay, KRAS G12D; assay type: cell-based; details: 72 h, AlamarBlue, read-out: KRAS G12D Ba/F3 IC50
Chain of KRAS G12D Ba/F3 (P01116 whole entry G12D): as the sequence (P01116 whole entry G12V, canonical isoform) above, with V12D counted along it
Procedure: as §1, §2

[4] = McIlvaine buffer pH 4.5, 24 h, read-out: Solubility [μg/ml] pH 4.5
[5] = McIlvaine buffer pH 6.8, 24 h, read-out: Solubility [μg/ml] pH 6.8

| Structure (SMILES) | fraction unbound [1] | GI50 (KRAS G12V Ba/F3) [nM] | solubility at 24 h [2, 4] [µg/mL] | solubility at 24 h [2, 5] [µg/mL] | HLM QH [%] [3] [%] | pIC50 (AsPC-1 cells) | GI50 (KRAS G12C Ba/F3) [nM] | GI50 (KRAS G12D Ba/F3) [nM] |
| --- | --- | --- | --- | --- | --- | --- | --- | --- |
| C[C@H](Oc1cc(O[C@H]2CNC(C)(C)C2)nc(-c2noc3c2CCC[C@@]32CCCc3sc(N)c(C#N)c32)n1)[C@@H]1CCCN1C (single isomer, unassigned) [II-8] | 0.59 | 869 | > 145 | > 146 | <24 | 5.76 | 592 | 388 |
| C[C@H](Oc1cc(Oc2nccs2)nc(-c2noc3c2CCC[C@@]32CCCc3sc(N)c(C#N)c32)n1)[C@@H]1CCCN1C [II-2] | 0.07 | 4 | > 109 | < 1 | 46 | 5.74 | 5 | 20 |
| C[C@H](Oc1cc(OCCO)nc(-c2noc3c2CCC[C@@]32CCCc3sc(N)c(C#N)c32)n1)[C@@H]1CCCN1C [II-6] | 0.72 | 7 | > 121 | > 119 | 40 | 5.75 | 11 | 16 |
| C[C@H](Oc1cc(N(C)CCN(C)C)nc(-c2noc3c2CCC[C@@]32CCCc3sc(N)c(C#N)c32)n1)[C@@H]1CCCN1C [II-20] | 0.8 | 303 | > 144 | > 142 | <24 | 5.45 | 376 | 304 |
| C[C@H](Oc1cc(Oc2nccs2)nc(-c2onc3c2CCC[C@@]32CCCc3sc(N)c(C#N)c32)n1)[C@@H]1CCCN1C [Example I-1] | 0.25 | 3 | 95 (≈ 161 µM) | < 1 | 44 | 5.60 | 4 | 11 |

The remaining lines, values ahead:

| fraction unbound [1] | GI50 (KRAS G12V Ba/F3) [nM] | solubility at 24 h [2, 4] [µg/mL] | solubility at 24 h [2, 5] [µg/mL] | HLM QH [%] [3] [%] | pIC50 (AsPC-1 cells) | GI50 (KRAS G12C Ba/F3) [nM] | GI50 (KRAS G12D Ba/F3) [nM] | Structure (SMILES) |
| --- | --- | --- | --- | --- | --- | --- | --- | --- |
| 0.08 | 43 | > 107 | 95 (≈ 178 µM) | <24 | 5.71 | 61 | 81 | C[C@H](Oc1cc(N(C)C)nc(-c2noc3c2CCC[C@@]32CCCc3sc(N)c(C#N)c32)n1)[C@@H]1CCCN1C [II-10] |
| 0.28 | 3 | > 118 | 90 (≈ 154 µM) | 72 | 5.52 | 4 | 10 | C[C@H](Oc1cc(Oc2cnccn2)nc(-c2noc3c2CCC[C@@]32CCCc3sc(N)c(C#N)c32)n1)[C@@H]1CCCN1C [II-7] |
| 0.54 | 6 | 80 (≈ 139 µM) | < 1 | 59 | 5.56 | 12 | 31 | C[C@H](Oc1cc(O[C@H]2CCOC2)nc(-c2noc3c2CCC[C@@]32CCCc3sc(N)c(C#N)c32)n1)[C@@H]1CCCN1C [II-4] |
